The source of these data is a melting point compilation (Tetko et al.; mined from patent text by program, amines drawn as free bases though some values may be those of a salt).

What is called melting point is the temperature of the solid-liquid transition.

With `CC(O)(C1=CCN(CCCC(=O)c2ccc(F)cc2)CC1)c1ccc(F)cc1` (stereo not drawn), the melting point was found to be 95 °C.

Take `Cc1nnc2n1-c1ccccc1C(c1ccc(Cl)cc1)=NN2Cc1ccc(NC=O)cc1`: the melting point was in the range of 215 to 216 °C.

In turn, `CN(C)c1ccc(NC(=O)N(C[C@@H]2CCC[C@H](CN(CC(C)(C)C)C(=O)Nc3ccc(N(C)C)cc3)C2)CC(C)(C)C)cc1` yielded a melting point of 171 to 173 °C.

In turn, `Cc1c(Br)c2cnnc(Cl)c2n1Cc1ccccc1` gave a melting point of 138 to 140 °C.

Take `O=C(O)c1cnccc1-c1ccccc1`: the melting point was 245 to 246 °C.

For the molecule `CCN(CC)C(=O)COc1nc(-c2ccccc2)nc2ccccc12`, the melting point amounted to 113 °C.

In turn, `CCN(Cc1ccccc1OCc1ccccc1)c1ccc(C(=O)O)cc1` returned a melting point of 165 °C.

`CC(=O)SC(CC(=O)c1ccc(F)cc1)C(=O)O` (stereo not drawn) gave a melting point of 108 to 110 °C.

`CCn1nc(-c2ccccc2)c(C(C)=O)c([N+](=O)[O-])c1=O`: the melting point fell in the range of 226 to 227 °C.

For the molecule `CCCn1c(=O)c2[nH]c(/C=C/c3ccccc3Cl)nc2n(CCC)c1=O`, the melting point lay within 269 to 270 °C.

As for `CCOC(=O)c1ccc(N=C(C)c2ccccc2)cc1`, the melting point worked out at 87 °C.

The molecule `Cc1ccc2oc(-c3ccc(C=Cc4ccc(C(=O)O)cc4)cc3)cc2c1` registered a melting point of 355 to 358 °C.

In the case of `CC(C)CC(=O)Nc1nc(-c2ccccc2)c(-c2ccc(=O)n(C(C)C)n2)s1`, the melting point lay within 198 to 199 °C.

As for `COc1ccc(C2(O)CCC3(CC2)OCCO3)c2c1OCCO2`, the melting point is 94 to 96 °C.

`C=CCCONC(=O)c1nc(-c2ccc(Cl)c(OC)c2F)cc(N)c1Cl` returned a melting point of 141 to 143 °C.

As for `Cc1c(Cl)cccc1S(=O)(=O)Nc1ccc2ncncc2c1`, the melting point is > 270 °C.

`CCOC(=O)N1CCc2nc3ccccc3c(CO)c2CC1` registered a melting point of 158 °C.

Turning to `Cn1cc2c(n1)Nc1ccc(F)cc1N=C2N1CCN(CC2CC2)CC1`, the melting point was 188 to 189 °C.

`COc1ccc(-c2nc(C(=O)O)cc(Cl)c2Cl)cc1` displayed a melting point of 164 to 181 °C.

In turn, `N#Cc1ccc(COc2ccc(CC(NC(=O)c3cc4ccc(-c5ccc(Cl)cc5)cc4o3)C(=O)O)cc2)cc1` (stereo not drawn) showed a melting point of 204 °C.

Molecule `CC(Cc1ccccc1)NC(=O)C(F)(F)F` (stereo not drawn) came in with a melting point of 82 to 83 °C.

`NC(=O)COC(=O)c1ccc(O)cc1` yielded a melting point of 250 to 255 °C.

The molecule `CCN1CCCC1CNC(=O)c1c(Br)c(Br)c([N+](=O)[O-])c2c1OCCO2` (stereo not drawn) displayed a melting point of 213 °C.

`COc1ccc(C(=O)Nc2ccc(Cl)c(Cl)c2)cc1NS(C)(=O)=O` showed a melting point of 226 to 228 °C.

Consider `O=C(C=Cc1ccc(-c2ccc(Cl)cc2)cc1)NC(Cc1ccc(OCc2ccccc2)cc1)C(=O)O` (stereo not drawn), for which the melting point is 253 to 254 °C.

As to `O=Cc1c2n(c3ccncc13)CCC2`, the melting point lay within 150 to 151 °C.

In turn, `CN1C(N2CCCCC2)=C2N=c3cc(Cl)ccc3=C2Oc2ccccc21` registered a melting point of 244 to 245 °C.

`O=C(CNCCO)Nc1ccccn1` gave a melting point of 114 to 115 °C.

The molecule `CCOC(=O)C1(C(=O)OCC)CCc2cc3c(cc2C1c1cc(OC)c(O)c(OC)c1)OCO3` (stereo not drawn) had a melting point of 147 to 148 °C.

The molecule `Cc1nc(NCCSCc2csc(CN(C)C)n2)[nH]c(=O)c1Cc1cccnc1` displayed a melting point of 130 to 131 °C.

For the molecule `CCCC1CCC(c2cc(F)c(C(F)(F)Oc3ccc(-c4cc(F)c(C(F)(F)F)c(F)c4)c(F)c3)c(F)c2)OC1` (stereo not drawn), the melting point was 95 °C.

The molecule `COC(=O)CC[C@H](NC(=O)CCCCC=Cc1cnc2nc(NC(=O)C(C)(C)C)nc(O)c2c1)C(=O)OC` registered a melting point of 79 to 81 °C.

`CCCCc1nc(Cl)c(CO)n1Cc1ccc(NC(=O)[C@H](CC#N)NC(=O)OCc2ccccc2)cc1` displayed a melting point of 89 to 91 °C.

Turning to `C#CC1(OC(=O)NCCCC)CCN(CCC=C(c2ccc(F)cc2)c2ccc(F)cc2)CC1`, the melting point was 83 to 84 °C.

The molecule `O=C(O)c1ccc(C2=CCC3CCC2C3)cc1` (stereo not drawn) returned a melting point of 180 to 181 °C.

Molecule `CC(=O)OCCNc1nnc(-c2ccccc2)cc1C` registered a melting point of 127 °C.

In the case of `CC(NC(=O)C(NC(=O)OCc1ccccc1)C(C)C)C(=O)NC(CC(=O)OC(C)(C)C)C(O)c1nc2ccccc2o1` (mixture of isomers), the melting point is 81 to 83 °C.

The molecule `O=C(Nc1ccc(F)cc1)N(O)Cc1ccc(OCc2csc(-c3ccc(C(F)(F)F)cc3)n2)cc1` showed a melting point of 174 to 176 °C.

`CCOC(=O)CCc1cccc(N)c1` yielded a melting point of 132 to 135 °C.

For the molecule `COC(=O)COc1ccc(C(=O)CBr)cc1OC`, the melting point is 105 to 107 °C.

`O=C(Cl)Sc1nnnn1-c1ccccc1` came in with a melting point of 112 to 114 °C.

`O=C(Nc1cc(S(=O)(=O)NCCO)sc1Cl)c1cnn2c(C(F)F)cc(-c3ccc(C(F)(F)F)cc3)nc12` showed a melting point of 209 °C.

As for `CCCCC[C@H]1CC[C@H](c2ncc(-c3ccc(CCCC)cc3)cn2)CC1`, the melting point came to 87 °C.

On to `Cc1nnc2ccc(-c3ccc(Cl)c(C(F)(F)F)c3)nn12`, for which the melting point lay within 267 to 269 °C.

In turn, `Cc1nc(NCCCOc2cccc(CN3CCCCC3)c2)sc1C` gave a melting point of 123 to 125 °C.

Consider `Cc1ccccc1C(=O)Nc1ccc(C(=O)N2Cc3ccccc3Cc3ccccc32)c(Cl)c1`, for which the melting point fell in the range of 138 to 150 °C.

As for `CSc1ncc2c(Cl)ccn2n1`, the melting point is 107 to 108 °C.

In the case of `CSc1nnnc2c1sc1nc(C)ccc12`, the melting point was 197 to 198 °C.

In turn, `CCCCCCCCNc1ccc2c(C)nc(CC3OC(CO)C(O)C3O)n2n1` (stereo not drawn) displayed a melting point of 105 to 106 °C.

As for `CC1(C)Cc2cccc(Oc3c(Cl)cc(N)cc3Cl)c2O1`, the melting point lay within 140 to 145 °C.

The molecule `COc1ccc(C(C)C)cc1-c1cc(-c2nnnn2C2CCCN(C(=O)OC(C)(C)C)C2)c(O)cc1O` (stereo not drawn) showed a melting point of 227 to 229 °C.

For the molecule `Nc1c(Cl)ccc2c1C=C(C(=O)O)C(C(F)(F)F)O2` (stereo not drawn), the melting point was in the range of 208 to 210 °C.

Turning to `Cc1cc(C)c2c(c1C)OC(C)(CC#N)C2` (stereo not drawn), the melting point was in the range of 58 to 59 °C.

In turn, `O=C(C(=O)c1ccc(Cl)cc1Cl)c1ccncc1` came in with a melting point of 85 °C.

On to `CCn1c(COC)nc(C(C)C)c1Sc1cc(C#N)cc(C#N)c1`, for which the melting point was in the range of 156 to 158 °C.

The molecule `CCCCCn1c(=O)c2cc(C(=O)O)cn2c2ccccc21` came in with a melting point of 184 to 186 °C.

`Cc1cc([N+](=O)[O-])ccc1N=C1C2CC3CC(C2)CC(C3)N1CC(C)C` returned a melting point of 101 to 102 °C.

Molecule `CC(C)(C)Cc1nc2cc(S(=O)(=O)c3ccccc3)ccc2n1CC1CC1` registered a melting point of 173 °C.

Regarding `COc1cccc(OC)c1C(=O)Nc1oncc1-c1ccc(C(F)(F)F)cc1`, the melting point was 199 to 201 °C.

As for `O=C(O)COc1ccc(SCc2ccc(OCc3ccc(Cl)cc3Cl)cc2)c2c1CCC2`, the melting point fell in the range of 149 to 150 °C.

The molecule `Nc1cccc(Cn2c(-c3ccc(-c4cccnc4)cc3)ccc2-c2ccccc2Cl)n1` yielded a melting point of 139 to 145 °C.

In turn, `CCCCCN1C(=O)C2(COc3ccc(-c4cncnc4)cc32)c2ccccc21` (stereo not drawn) had a melting point of 115 to 117 °C.

Molecule `CCOP(=O)(/C=C\c1cnc(-c2ccccc2)nc1OCc1ccc(OCc2nc(-c3ccco3)oc2C)c(OC)c1)OCC` had a melting point of 103 to 104 °C.

For the molecule `Cc1ccc2c(c1)OCC(=O)N2`, the melting point amounted to 197 °C.

As for `CC(O)c1ccc2occ(C#N)c(=O)c2c1` (stereo not drawn), the melting point fell in the range of 147 to 148 °C.

In turn, `CCOC(=O)Cc1ccc2c(c1)sc1c(Cl)cccc12` showed a melting point of 62 to 64 °C.

The molecule `CCc1nnc(-c2ccc(N(C)C)c(C)c2)n1-c1ccc(OC)cc1` yielded a melting point of 131 °C.

`O=c1[nH]c2scc(-c3ccccc3)c2[nH]c1=O`: the melting point was > 300 °C.

`N=C(Nc1nc(-c2ccccn2)nc2ccccc12)C(F)(F)F` returned a melting point of 189 °C.

For the molecule `COc1ccc(-c2nc3cnccc3[nH]2)c(OC(C)C)c1`, the melting point turned out to be 220 °C.

Turning to `COc1ccccc1Cc1c(N)nc(SCCCN2CCN(C(C)=O)CC2)nc1N`, the melting point fell in the range of 208 to 209 °C.

The molecule `O=C(O)COc1c[nH]cc(Cl)c1=O` yielded a melting point of 253 to 255 °C.

In the case of `N#Cc1cc(S(=O)c2ccccc2)[nH]c1-c1ccc(Cl)cc1` (stereo not drawn), the melting point lay within 169 to 170 °C.

Molecule `COC(=O)C1(C)CN(C(=O)Nc2ccc(Cl)cc2)N=C1c1ccc(Cl)cc1` (stereo not drawn) displayed a melting point of 122 °C.

Take `O=C1NNC2=CC(=O)N(c3ccccc3)c3cc(Cl)ccc3N12`: the melting point fell in the range of 110 to 112 °C.

Take `CNC(=O)NCCNCC(O)COc1ccc(OCCOCC(C)C)cc1` (stereo not drawn): the melting point stood at 121 °C.

`CC(C)c1ccc(C(=O)Cc2cccs2)c(C(C)C)c1OS(N)(=O)=O`: the melting point was 133 to 136 °C.

`COC(=O)c1ccc(-c2cccc(OCc3ccc(COC(=O)c4ccccc4)c(COC(=O)c4ccccc4)c3)c2)cc1` displayed a melting point of 71 to 72 °C.

As for `COP(=O)(c1ccccc1)c1ccc2c(c1)C(NC(=NC#N)Nc1ccc(Cl)cc1)C(O)C(C)(C)O2` (stereo not drawn), the melting point came out at 150 °C.

Take `CCNC(=O)c1ccsc1[Si](C)(C)C`: the melting point lay in the range of 114 to 116 °C.

Molecule `COc1ccc(NC2=NN(c3cccc(C(F)(F)F)c3)CC2)cc1` displayed a melting point of 127 to 128 °C.

Turning to `O=C(O)C1=Cc2cc(F)c(F)cc2NC1C(F)(F)F` (stereo not drawn), the melting point was 187 to 189 °C.

As to `COC(=O)c1ccc(C2C(C(=O)c3ccc(OC)cc3)=C(O)C(=O)N2c2nnc(C)s2)cc1` (stereo not drawn), the melting point was 255 to 257 °C.

For `COC(=O)CCCc1cc2cc(Cl)ccc2n1S(=O)(=O)c1cccc2nc(C)sc12`, the melting point amounted to 129 °C.

The molecule `CC1OC(O)(Cl)CC(NC(=O)C(F)(F)F)C1(O)OC(=O)C(F)(F)F` (stereo not drawn) yielded a melting point of 132 to 134 °C.

For `CNC(=NC(=O)NC1CCCCC1)N(C)C`, the melting point fell in the range of 121 to 124 °C.

With `CCCC1=C(C)C(=O)c2c(oc(Cc3ccc(OC)cc3)c2C)C1=O`, the melting point lay within 60 to 61 °C.

As to `CN(C)CCC(=O)c1c(-c2ccccc2)[nH]c2ccccc12`, the melting point lay in the range of 136 to 138 °C.
